Experimental data reported in ChEMBL document CHEMBL1201862, “PubChem BioAssay data set” (2004).
Active and inactive are the calls of the source.

Key:
[1] = molecular target: T1, DNA repair and recombination protein RAD54-like (Homo sapiens, UniProt Q92698); test: inhibitors of human RAD54 branch migration, confirmation, biochemical, fluorescence, cherry-picked samples, dose series (AID 651657); type: functional
T1 sequence (Q92698 whole entry): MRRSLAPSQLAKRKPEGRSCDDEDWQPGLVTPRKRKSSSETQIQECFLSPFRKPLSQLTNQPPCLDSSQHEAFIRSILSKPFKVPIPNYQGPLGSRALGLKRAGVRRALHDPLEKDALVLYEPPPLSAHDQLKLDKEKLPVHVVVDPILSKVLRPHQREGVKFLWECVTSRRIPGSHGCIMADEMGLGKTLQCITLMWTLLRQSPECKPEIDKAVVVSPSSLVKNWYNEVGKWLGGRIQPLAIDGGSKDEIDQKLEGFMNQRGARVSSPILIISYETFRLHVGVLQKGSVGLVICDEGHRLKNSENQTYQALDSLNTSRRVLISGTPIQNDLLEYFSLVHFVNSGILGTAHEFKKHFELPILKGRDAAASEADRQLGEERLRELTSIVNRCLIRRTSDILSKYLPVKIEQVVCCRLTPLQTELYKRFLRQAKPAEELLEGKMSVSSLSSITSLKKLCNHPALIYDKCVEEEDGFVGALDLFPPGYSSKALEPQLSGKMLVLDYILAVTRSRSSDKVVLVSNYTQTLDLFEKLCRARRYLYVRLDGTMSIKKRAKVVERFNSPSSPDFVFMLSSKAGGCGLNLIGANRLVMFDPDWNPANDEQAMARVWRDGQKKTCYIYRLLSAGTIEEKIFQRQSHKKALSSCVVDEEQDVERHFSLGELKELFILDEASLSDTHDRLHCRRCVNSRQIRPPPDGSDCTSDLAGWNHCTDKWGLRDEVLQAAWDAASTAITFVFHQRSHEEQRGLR

[2] = molecular target: T2, DNA repair protein RAD52 homolog (Homo sapiens, UniProt P43351); type: functional, biochemical
T2 sequence (P43351 whole entry): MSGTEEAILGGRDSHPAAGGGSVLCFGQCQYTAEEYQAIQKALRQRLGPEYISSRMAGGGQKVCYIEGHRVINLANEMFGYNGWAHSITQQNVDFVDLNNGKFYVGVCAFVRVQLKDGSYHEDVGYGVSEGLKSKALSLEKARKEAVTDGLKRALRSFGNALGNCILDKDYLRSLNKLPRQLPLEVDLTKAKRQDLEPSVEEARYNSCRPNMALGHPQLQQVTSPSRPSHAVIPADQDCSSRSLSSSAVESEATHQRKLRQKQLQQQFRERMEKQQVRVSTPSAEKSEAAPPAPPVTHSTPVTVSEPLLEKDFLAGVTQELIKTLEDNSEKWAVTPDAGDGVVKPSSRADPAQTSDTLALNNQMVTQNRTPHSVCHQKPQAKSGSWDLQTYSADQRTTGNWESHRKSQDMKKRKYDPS

[3] = molecular target: T3, Ubiquitin-conjugating enzyme E2 N (Homo sapiens, UniProt P61088); type: functional;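 further: Dose-response confirmation in a TR-FRET assay detecting UBC13-driven polyubiquitin chain formation, inhibition measured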
T3 sequence (P61088 whole entry): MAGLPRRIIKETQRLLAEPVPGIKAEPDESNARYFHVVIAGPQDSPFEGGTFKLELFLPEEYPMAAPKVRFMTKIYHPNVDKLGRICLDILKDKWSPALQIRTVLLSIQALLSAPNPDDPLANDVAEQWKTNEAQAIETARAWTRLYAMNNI

[4] = molecular target: T4, Tyrosine-protein phosphatase non-receptor type 5 (Homo sapiens, UniProt P54829); test: STEP phosphatase inhibitors, confirmation, biochemical, fluorescence intensity, uHTS hits (AID 602372); type: functional; conditions: read-out: IC50_Mean
T4 sequence (P54829 whole entry): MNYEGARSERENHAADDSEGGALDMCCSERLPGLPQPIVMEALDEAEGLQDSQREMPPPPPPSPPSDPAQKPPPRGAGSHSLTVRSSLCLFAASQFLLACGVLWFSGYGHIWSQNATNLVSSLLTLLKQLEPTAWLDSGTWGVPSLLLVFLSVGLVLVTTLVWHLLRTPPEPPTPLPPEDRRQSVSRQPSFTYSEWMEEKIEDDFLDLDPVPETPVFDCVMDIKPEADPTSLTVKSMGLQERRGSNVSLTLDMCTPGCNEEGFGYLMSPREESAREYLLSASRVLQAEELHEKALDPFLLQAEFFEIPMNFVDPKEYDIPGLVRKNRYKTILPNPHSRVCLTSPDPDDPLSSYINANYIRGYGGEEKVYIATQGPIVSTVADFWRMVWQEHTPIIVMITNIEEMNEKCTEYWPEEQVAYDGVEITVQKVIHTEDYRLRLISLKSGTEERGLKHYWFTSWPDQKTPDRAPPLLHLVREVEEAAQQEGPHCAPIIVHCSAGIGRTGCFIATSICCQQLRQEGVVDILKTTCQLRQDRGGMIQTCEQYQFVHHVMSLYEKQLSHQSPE

[5] = molecular target: T5, Tyrosine-protein phosphatase non-receptor type 11 (Homo sapiens, UniProt Q06124); test: SHP2 phosphatase inhibition, dose response, selectivity assay for STEP inhibitor project, biochemical (AID 602367); type: functional; conditions: read-out: IC50_Mean
T5 sequence (Q06124 whole entry): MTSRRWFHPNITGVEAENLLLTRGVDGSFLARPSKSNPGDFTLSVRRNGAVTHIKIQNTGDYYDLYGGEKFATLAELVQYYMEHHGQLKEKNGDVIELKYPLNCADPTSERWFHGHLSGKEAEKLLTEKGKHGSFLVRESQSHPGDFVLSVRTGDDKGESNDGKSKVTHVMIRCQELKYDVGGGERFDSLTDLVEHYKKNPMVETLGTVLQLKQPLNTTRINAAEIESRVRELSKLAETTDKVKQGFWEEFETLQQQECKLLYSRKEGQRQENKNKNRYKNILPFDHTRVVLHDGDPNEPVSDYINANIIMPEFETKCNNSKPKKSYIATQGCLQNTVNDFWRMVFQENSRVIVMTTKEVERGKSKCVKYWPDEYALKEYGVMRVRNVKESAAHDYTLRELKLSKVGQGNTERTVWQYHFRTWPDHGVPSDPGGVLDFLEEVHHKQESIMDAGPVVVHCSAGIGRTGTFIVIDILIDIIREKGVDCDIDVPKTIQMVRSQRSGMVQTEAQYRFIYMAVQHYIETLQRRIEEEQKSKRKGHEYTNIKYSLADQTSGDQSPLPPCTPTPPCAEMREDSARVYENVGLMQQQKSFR

[6] = molecular target: Dual specificity protein phosphatase 3 (Homo sapiens, UniProt P51452); test: VHR phosphatase inhibition, dose response, selectivity assay for STEP inhibitor project, biochemical (AID 602374); type: functional; conditions: read-out: IC50_Mean
[7] = test system: H9c2; test: cells; type: functional, cell-based; conditions: Rattus norvegicus, H9c2, Myocardium;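 further: confirmatory concentration-response retest of ultra-high-throughput screening hits for modulation of myocardial damage; cell death induced by hydrogen peroxide oxidative stress; compound pretreatment for 60 min then peroxide exposure for 2 h; potency is for protecting the cells against peroxide damage rather than for killing them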
[8] = cells; type: functional, cell-based
[9] = inhibitors of intracellular T. cruzi replication, confirmation, NIH3T3 host cells, beta-gal luminescence (AID 2044); type: functional, cell-based;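 further: intracellular parasites grown in NIH/3T3 mouse fibroblasts as host cells; luminescent beta-galactosidase reporter signal from transgenic T. cruzi replicating inside host cells; inhibitors lower the luminescence signal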
[10] = AlphaScreen signal interference compounds, dose response, artefact control for ARNT-TACC3 interaction inhibitor project, biochemical, luminescence, cherry-pick (AID 651705); type: functional;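 further: AlphaScreen bead proximity signal that flags compounds interfering with the detection technology; potency reflects signal decrease which marks the compound as an assay artifact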
[11] = cytotoxicity toward NIH3T3 fibroblasts, dose response, counter-screen, cell-based, ATP luminescence, mouse fibroblasts (AID 2010); type: functional;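 further: cells exposed to compound for about 90 hours before reading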
[12] = cells; type: functional, cell-based; remark: listed apart in the source
[13] = molecular target: T6, Hepatocyte nuclear factor 4-alpha (Homo sapiens, UniProt P41235); type: functional, cell-based;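 further: biochemical luminescence-based dose-response counterscreen measuring inhibition of HNF4 dimerization, run alongside a screen for blockers of ABHD5–perilipin-5 interaction; split luciferase complementation of HNF4 fusion proteins in cell lysate measuring dimerization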
T6 sequence (P41235 whole entry): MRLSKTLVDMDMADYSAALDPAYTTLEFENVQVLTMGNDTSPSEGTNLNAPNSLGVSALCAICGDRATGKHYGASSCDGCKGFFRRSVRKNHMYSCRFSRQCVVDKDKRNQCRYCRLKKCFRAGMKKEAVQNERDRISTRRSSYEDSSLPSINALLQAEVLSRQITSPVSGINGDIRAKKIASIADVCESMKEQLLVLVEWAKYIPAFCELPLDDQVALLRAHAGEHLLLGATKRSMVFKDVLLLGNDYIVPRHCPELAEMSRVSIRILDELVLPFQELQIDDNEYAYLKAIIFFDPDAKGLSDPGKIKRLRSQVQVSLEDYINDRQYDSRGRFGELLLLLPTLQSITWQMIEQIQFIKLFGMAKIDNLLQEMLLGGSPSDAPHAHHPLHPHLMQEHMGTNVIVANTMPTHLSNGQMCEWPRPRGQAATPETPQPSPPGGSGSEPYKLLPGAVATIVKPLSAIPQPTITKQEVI

[14] = molecular target: Glucose-6-phosphate 1-dehydrogenase (Homo sapiens, UniProt P11413); test: human G6PD enzyme inhibitors, dose response, selectivity assay for P. falciparum G6PD inhibitor project, biochemical, fluorescence (AID 504792); type: functional
[15] = molecular target: T7, Sentrin-specific protease 8 (Homo sapiens, UniProt Q96LD8); type: functional
T7 sequence (Q96LD8 whole entry): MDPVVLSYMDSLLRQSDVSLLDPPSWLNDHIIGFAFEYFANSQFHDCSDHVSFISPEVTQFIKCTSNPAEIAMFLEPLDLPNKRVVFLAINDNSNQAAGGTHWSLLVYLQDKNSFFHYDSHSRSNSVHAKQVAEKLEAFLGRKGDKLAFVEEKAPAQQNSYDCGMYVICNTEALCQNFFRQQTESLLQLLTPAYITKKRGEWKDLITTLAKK

[16] = molecular target: T7, Sentrin-specific protease 8; type: functional; remark: listed apart in the source
[17] = molecular target: Genome polyprotein (dengue virus type 2, UniProt P29990); test: Dengue-2 NS5 methyltransferase inhibitors, primary screen, biochemical, confirmation dose response (AID 588689); type: functional
Genome polyprotein, sequence (P29990 2492-3391 limits assumed): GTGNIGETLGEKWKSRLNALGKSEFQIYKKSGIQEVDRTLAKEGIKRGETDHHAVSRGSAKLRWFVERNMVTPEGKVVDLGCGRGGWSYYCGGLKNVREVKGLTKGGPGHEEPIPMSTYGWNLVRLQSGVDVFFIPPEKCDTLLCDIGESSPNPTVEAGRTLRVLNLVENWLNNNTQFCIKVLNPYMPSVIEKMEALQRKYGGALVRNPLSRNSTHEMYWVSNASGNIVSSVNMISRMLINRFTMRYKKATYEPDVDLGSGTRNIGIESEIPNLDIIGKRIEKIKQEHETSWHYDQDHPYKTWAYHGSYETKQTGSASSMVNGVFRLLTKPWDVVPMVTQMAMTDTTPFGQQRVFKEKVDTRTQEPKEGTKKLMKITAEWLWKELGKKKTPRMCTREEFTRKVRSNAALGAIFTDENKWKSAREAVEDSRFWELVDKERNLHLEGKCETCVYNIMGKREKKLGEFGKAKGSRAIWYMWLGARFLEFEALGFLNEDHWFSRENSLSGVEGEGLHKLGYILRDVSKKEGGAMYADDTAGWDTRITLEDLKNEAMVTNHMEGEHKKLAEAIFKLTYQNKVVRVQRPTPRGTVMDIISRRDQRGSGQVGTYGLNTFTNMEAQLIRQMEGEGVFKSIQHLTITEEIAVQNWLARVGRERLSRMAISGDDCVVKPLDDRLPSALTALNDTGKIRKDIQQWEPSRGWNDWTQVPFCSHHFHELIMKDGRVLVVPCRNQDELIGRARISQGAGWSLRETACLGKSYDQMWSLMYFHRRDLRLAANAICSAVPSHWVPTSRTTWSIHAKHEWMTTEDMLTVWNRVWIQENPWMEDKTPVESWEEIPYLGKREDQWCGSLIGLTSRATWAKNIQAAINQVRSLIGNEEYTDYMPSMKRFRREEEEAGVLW

Dual specificity protein phosphatase 3, sequence (P51452 whole entry): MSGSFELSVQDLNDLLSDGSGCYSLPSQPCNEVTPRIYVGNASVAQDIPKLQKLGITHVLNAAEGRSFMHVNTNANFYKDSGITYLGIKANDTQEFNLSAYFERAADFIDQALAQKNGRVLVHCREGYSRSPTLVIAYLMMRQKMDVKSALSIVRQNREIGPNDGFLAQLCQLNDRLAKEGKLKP
Glucose-6-phosphate 1-dehydrogenase, sequence (P11413 whole entry): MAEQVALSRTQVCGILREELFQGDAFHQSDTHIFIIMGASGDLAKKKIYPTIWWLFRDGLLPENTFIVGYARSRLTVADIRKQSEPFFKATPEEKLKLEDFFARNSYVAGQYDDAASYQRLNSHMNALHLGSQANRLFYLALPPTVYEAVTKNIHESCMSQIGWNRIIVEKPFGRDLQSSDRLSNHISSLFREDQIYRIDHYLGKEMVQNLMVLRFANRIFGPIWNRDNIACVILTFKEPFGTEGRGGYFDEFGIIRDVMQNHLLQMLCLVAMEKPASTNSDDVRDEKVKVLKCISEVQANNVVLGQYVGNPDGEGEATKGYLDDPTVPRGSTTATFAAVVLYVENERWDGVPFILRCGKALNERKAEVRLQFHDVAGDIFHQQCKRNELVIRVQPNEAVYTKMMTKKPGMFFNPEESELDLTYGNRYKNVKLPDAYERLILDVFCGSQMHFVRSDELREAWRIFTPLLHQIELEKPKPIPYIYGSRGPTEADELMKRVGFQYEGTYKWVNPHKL

CCOC(=O)c1c(NC(=O)c2ccc(S(=O)(=O)N3CCOCC3)cc2)sc2c1CCN(C(C)C)C2
AC50 [1]: 8.89 µM (active)

CCN(CC)Cc1cc2[nH]c3c4ccc(Cl)cc4ncc3c2cc1OC
AC50 [1]: 14.6 µM (active) | AC50 [2]: 3.1 µM (active) | IC50 [3]: > 20 µM (inactive)

O=C(C1=C(O)C(=O)N(CCCO)C1c1ccc(Br)cc1)c1ccc(Br)cc1 (centres undefined)
IC50 [4]: 36.2 µM (inactive) | IC50 [5]: 58.9 µM (inactive) | IC50 [6]: 73.4 µM (inactive)

CC(C)[C@H](NC(=O)c1ccccc1Cl)C(=O)Nc1nc(-c2ccccn2)cs1
IC50 [7]: 8.83 µM (active) | EC50 [8]: > 350 µM (not active) | EC50 [9]: 2.23 µM (active) | AC50 [10]: 73.8 µM (active) | EC50 [11]: 11.7 µM (active) | EC50 [12]: 24 µM (active)

CCCCN(CC)CCCN=C(S)Nc1ccc2nc(N3CCN(CC)CC3)cc(C)c2c1
AC50 [1]: 25.7 µM (active)

COc1ccc(C(C(=O)NC2CCCCC2)n2c(=O)c(-c3ccco3)nc3ccccc32)cc1 (centres undefined)
IC50 [13]: 1.75 µM (active)

OCCN1CCN(C(=S)c2ccc(Cl)c(Cl)c2)CC1
IC50 [4]: 8.95 µM (active) | IC50 [5]: 1.99 µM (active) | IC50 [14]: > 80 µM (inactive) | AC50 [10]: 132 µM (active) | IC50 [6]: 0.339 µM (active) | IC50 [15]: 18.4 µM (active) | IC50 [16]: 10.8 µM (active)

O=C1NC(=S)NC(=O)C12C(c1ccccc1)NC(=S)NC2c1ccccc1 (centres undefined)
IC50 [13]: 5.81 µM (active) | IC50 [17]: 69.4 µM (active)
